In data set [1] the test system is LNCaP. Briefly: Antiproliferative activity against human LNCaP cells assessed as inhibition of cell proliferation incubated for 3 days by MTT assay. In kind it is functional, cell-based. The following applies: 72 h.
The target of data set [2] is T1, Androgen receptor (Homo sapiens, UniProt P10275).
T1 sequence (P10275 whole entry): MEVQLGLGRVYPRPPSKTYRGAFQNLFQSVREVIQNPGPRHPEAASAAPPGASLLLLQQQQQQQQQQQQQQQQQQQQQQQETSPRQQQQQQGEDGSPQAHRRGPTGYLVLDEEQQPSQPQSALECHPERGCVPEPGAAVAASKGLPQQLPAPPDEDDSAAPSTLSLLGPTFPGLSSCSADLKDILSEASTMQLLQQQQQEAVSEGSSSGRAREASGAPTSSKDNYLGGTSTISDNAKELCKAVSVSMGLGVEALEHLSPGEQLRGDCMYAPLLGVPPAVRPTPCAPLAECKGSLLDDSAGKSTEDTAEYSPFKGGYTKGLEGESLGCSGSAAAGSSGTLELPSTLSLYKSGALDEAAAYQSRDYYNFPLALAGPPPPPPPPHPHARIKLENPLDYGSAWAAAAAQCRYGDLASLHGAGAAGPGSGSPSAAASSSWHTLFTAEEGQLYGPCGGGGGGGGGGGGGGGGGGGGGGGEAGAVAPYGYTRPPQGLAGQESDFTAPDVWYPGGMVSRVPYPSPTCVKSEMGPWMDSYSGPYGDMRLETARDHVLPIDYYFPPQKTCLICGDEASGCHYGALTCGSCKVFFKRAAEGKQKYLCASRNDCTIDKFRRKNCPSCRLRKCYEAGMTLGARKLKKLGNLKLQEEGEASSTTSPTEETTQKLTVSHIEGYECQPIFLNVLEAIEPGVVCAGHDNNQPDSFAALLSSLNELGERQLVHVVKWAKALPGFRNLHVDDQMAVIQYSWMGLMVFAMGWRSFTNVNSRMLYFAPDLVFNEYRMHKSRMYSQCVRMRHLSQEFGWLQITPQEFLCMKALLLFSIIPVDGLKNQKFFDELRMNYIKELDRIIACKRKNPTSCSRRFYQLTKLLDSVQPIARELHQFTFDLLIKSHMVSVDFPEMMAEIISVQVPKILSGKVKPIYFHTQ
The data set is described as follows: Antagonist activity at Androgen receptor in human LNCaP cells transfected with ARR2PB-eGFP incubated for 3 days by synergy H1 microplate reader analysis. In kind it is cell-based.

The target of data set [3] is hERG (KCNH2) (Homo sapiens, UniProt Q12809). Briefly: (§1) Inhibition of hERG at 10 uM relative to control. In kind it is toxicity. On the technique in general: The hERG channel carries a current that helps repolarise heart muscle cells.
A short description of data set [4]: Antagonist activity at Androgen receptor F877L/T878A double mutant in human HEK293T cells cotransfected with MMTV-luc and renilla plasmid incubated for 24 hrs by Dual luciferase assay. In kind it is cell-based. The following applies: HEK-293T.
The test system of data set [5] is NIH3T3. Briefly: Antiproliferative activity against mouse 3T3 cells assessed as reduction in cell viability incubated for 3 days by MTT assay. In kind it is toxicity, cell-based. The note with it: nih3t3, 72 h, time 3 day. For orientation: Formazan colour is commonly taken as a measure of viable cells.
Data set [6] concerns LNCaP. Briefly: Antiproliferative activity against human LNCaP cells assessed as survival rate incubated for 3 days by MTT assay. The following applies: 72 h.
For data set [7], the system named is LNCaP C4-2B. The data set is described as follows: Antiproliferative activity against human LNCaP C4-2B cells assessed as survival rate incubated for 3 days by MTT assay. The following applies: 72 h.
For data set [8], the target named is Voltage-gated inwardly rectifying potassium channel KCNH2 (Homo sapiens, UniProt Q12809). The description is as §1. In kind it is toxicity. The note with it: 10 µM.
Data set [9] is described as follows: Downregulation of PSA level in human LNCaP cells transfected with ARR2PB-eGFP incubated for 24 hrs by Western blot analysis.
Data set [10] relates to LNCaP C4-2. The data set is described as follows: Antiproliferative activity against human LNCaP C4-2 cells assessed as survival rate incubated for 3 days by MTT assay. The following applies: LNCaP C4-2, 72 h.
Data set [11] has as its system LNCaP. The data set is described as follows: Downregulation of FKBP5 level in DHT-induced human LNCaP cells at 0.1 to 1 uM incubated for 24 hrs by Western blot analysis. In kind it is functional, cell-based. The note with it: dose 0.1-1 µM.

SMILES strings stand for the structures. pIC50: −log10 of the molar value. Activity calls are given as the source filed them. No cut-off for these calls is given here.

hERG (KCNH2), sequence (Q12809 whole entry): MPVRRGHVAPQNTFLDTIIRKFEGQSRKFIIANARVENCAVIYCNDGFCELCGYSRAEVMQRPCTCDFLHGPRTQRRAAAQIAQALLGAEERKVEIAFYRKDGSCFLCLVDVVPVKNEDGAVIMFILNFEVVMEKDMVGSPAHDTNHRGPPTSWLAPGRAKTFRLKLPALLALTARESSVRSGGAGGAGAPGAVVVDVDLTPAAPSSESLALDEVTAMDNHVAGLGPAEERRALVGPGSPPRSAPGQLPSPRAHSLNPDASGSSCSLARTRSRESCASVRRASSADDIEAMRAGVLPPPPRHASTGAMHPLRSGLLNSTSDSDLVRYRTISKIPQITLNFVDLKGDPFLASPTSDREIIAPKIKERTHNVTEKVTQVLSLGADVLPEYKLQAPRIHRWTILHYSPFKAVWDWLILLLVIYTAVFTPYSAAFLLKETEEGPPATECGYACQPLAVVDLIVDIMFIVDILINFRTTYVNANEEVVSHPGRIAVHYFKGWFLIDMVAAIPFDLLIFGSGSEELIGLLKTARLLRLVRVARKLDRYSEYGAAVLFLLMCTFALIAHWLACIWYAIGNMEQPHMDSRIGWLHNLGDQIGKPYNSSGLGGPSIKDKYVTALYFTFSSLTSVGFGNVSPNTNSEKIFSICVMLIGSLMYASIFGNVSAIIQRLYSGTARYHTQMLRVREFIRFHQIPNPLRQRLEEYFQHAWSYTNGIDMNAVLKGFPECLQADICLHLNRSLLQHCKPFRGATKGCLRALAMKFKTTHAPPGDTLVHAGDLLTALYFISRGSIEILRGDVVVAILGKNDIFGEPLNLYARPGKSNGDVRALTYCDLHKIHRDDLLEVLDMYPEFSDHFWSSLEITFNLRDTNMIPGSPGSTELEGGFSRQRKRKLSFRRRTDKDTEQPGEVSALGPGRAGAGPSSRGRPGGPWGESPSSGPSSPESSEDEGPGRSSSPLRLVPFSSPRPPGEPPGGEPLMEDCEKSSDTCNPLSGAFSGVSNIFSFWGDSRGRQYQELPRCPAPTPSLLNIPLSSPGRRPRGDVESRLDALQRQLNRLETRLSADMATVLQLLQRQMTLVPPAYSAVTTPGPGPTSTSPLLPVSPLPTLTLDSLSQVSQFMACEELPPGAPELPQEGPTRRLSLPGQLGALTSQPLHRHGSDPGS
Voltage-gated inwardly rectifying potassium channel KCNH2, sequence (Q12809 whole entry): as above

On to `Cc1oc(-c2cc(C(F)(F)F)ccc2Cl)cc1C(=O)Nc1nc(CN2CCOCC2)ns1`, for which the pIC50 in [1] is 5.49; in [2], 7.54. Further, in [3], the inhibition at 10 µM was 8%. As to `CC(=O)Cc1nsc(NC(=O)c2coc(-c3cccc(C(F)(F)F)c3)c2)n1`, in data set [2], the negative-log IC50 (pIC50) was 6.15. `CC(O)c1cc(C(=O)N[C@@H](C)Cn2ccc(-c3ccc(C#N)c(Cl)c3)n2)n[nH]1` (some centres undefined) [DAROLUTAMIDE] showed a pIC50 in [4] of 6.17.

On to `CC(=O)Cc1nsc(NC(=O)c2cc(-c3cccc(C(F)(F)F)c3)oc2C)n1`, for which, in [2], the pIC50 was 6.82. Consider `Cc1oc(-c2cccc(C(F)(F)F)c2)cc1C(=O)Nc1nc(CN2CCCCC2)ns1`, for which the pIC50 in data set [2] was 7.62. In data set [3], the inhibition at 10 µM came out at 95.5%. For the molecule `Cc1oc(-c2ccc(Cl)c(C(F)(F)F)c2)cc1C(=O)Nc1nc(CN2CCOCC2)ns1`, in data set [2], the pIC50 is 7.46. This molecule displayed an inhibition at 10 µM in data set [3] of 51.3%. As to `CC(=O)Cc1nsc(NC(=O)c2cc(-c3cccc(C(F)(F)F)c3)oc2C(F)(F)F)n1`, in [2], the pIC50 was 5.08.

The molecule `Cc1oc(-c2cc(F)cc(C(F)(F)F)c2)cc1C(=O)Nc1nc(CN2CCOCC2)ns1` registered an inhibition at 10 µM in data set [3] of 16.4%. Moreover, the Activity entry in data set [5] is on record as “Non-toxic”. Take `Cc1oc(-c2cccc(C(F)(F)F)c2)cc1C(=O)Nc1nc(CN2CCC(C(C)(C)O)CC2)ns1`: the pIC50 in data set [2] is 6.57.

As to `Cc1oc(-c2cccc(OC(F)F)c2)cc1C(=O)Nc1nc(CN2CCOCC2)ns1`, in data set [2], the pIC50 is 7.80. The same molecule returned an inhibition at 10 µM in [3] of 68.3%. In the case of `Cc1oc(-c2cc(Cl)cc(C(F)(F)F)c2)cc1C(=O)Nc1nc(CN2CCOCC2)ns1`, the pIC50 in data set [2] was 6.59. Regarding `CNC(=O)c1ccc(N2C(=S)N(c3ccc(C#N)c(C(F)(F)F)c3)C(=O)C2(C)C)cc1F` [ENZALUTAMIDE], the pIC50 was 4.56 in [6]; 4.79 in data set [7]; 4.91 in [1]; 6.28 in data set [9]; 4.56 in [10]. Further, the “inhibition (INH)” value in data set [8] is reported as “Not_active”. On to `Cc1oc(-c2cccc(C(F)(F)F)c2)cc1C(=O)Nc1nc(CC(C)N2CCCCC2)ns1` (centres undefined), for which the pIC50 in data set [2] is 6.35.

For `Cc1oc(-c2cccc(C(F)(F)F)c2)cc1C(=O)Nc1nc(CN2CCCC2)ns1`, the pIC50 in data set [2] was 7.21. On to `COc1cccc(-c2cc(C(=O)Nc3nc(CN4CCOCC4)ns3)c(C)o2)c1`, for which, in data set [2], the pIC50 is 7.66. The inhibition at 10 µM in [3] amounted to 36.9%. Consider `Cc1oc(-c2cccc(C(F)(F)F)c2)cc1C(=O)Nc1nc(CN2CCC(CO)CC2)ns1`, for which the pIC50 in [2] is 6.80. Further, the outcome in data set [11] was Active. Regarding `Cc1oc(-c2cccc(OC(F)(F)F)c2)cc1C(=O)Nc1nc(CN2CCOCC2)ns1`, the pIC50 in data set [2] is 7.72. This molecule also returned an inhibition at 10 µM in [3] of 47.3%.

On to `CC(=O)Cc1ccc(NC(=O)c2cc(-c3cccc(C(F)(F)F)c3)oc2C)cc1`, for which the pIC50 in data set [2] is 4.30. Still for that read-out and setting: to `Cc1oc(-c2cccc(C(F)(F)F)c2)cc1C(=O)Nc1nc(CN2CCC(O)C2)ns1` (centres undefined) belongs 6.33; to `Cc1oc(-c2cccc(C(F)(F)F)c2)cc1C(=O)Nc1nc(CC(C)N(C)C)ns1` (centres undefined), 6.55; to `Cc1oc(-c2cccc(C(F)(F)F)c2)cc1C(=O)Nc1ncns1`, 6.74.

Consider `Cc1oc(-c2cc(C(F)(F)F)ccc2F)cc1C(=O)Nc1nc(CN2CCOCC2)ns1`, for which the pIC50 in data set [1] is 5.56; in [2] it was 7.74. Also, the inhibition at 10 µM in data set [3] was found to be 21%. For `Cc1oc(-c2cccc(C(F)(F)F)c2)cc1C(=O)Nc1nc(CN2CCC(O)CC2)ns1`, the pIC50 in data set [2] was 6.85. Take `Cc1oc(-c2cccc(C(F)(F)F)c2)cc1C(=O)Nc1nc(CC(C)O)ns1` (centres undefined): the pIC50 in [2] was 7.54. Same read-out and setting: then `Cc1oc(-c2cccc(C(F)(F)F)c2)cc1C(=O)Nc1nc(CN2CCN(C)CC2)ns1`, with 7.13; and `Cc1oc(-c2ccc(F)c(C(F)(F)F)c2)cc1C(=O)Nc1nc(CN2CCOCC2)ns1`, with 7.59. The same measure, in the same setting: to `CC(Cc1nsc(NC(=O)c2cc(-c3cccc(C(F)(F)F)c3)oc2C)n1)=C(F)F` belongs 6.55; to `Cc1oc(-c2cccc(C(F)(F)F)c2Cl)cc1C(=O)Nc1nc(CN2CCOCC2)ns1`, 6.07; to `CC(=O)Cc1nsc(NC(=O)c2cc(-c3cccc(C(F)(F)F)c3)sc2C)n1`, 5.04.

For the molecule `Cc1oc(-c2cccc(C(F)(F)F)c2)cc1C(=O)Nc1nc(CC(C)N2CCCC2)ns1` (centres undefined), the pIC50 in [2] was 7.62. In addition, the inhibition at 10 µM in [3] was determined as 93.5%.

In the case of `Cc1oc(-c2cccc(C(F)(F)F)c2)cc1C(=O)Nc1nc(CC(C)N2CCN(C)CC2)ns1` (centres undefined), the negative logarithm of the IC50 (pIC50) in [2] is 7.44. Consider `Cc1oc(-c2cccc(C(F)(F)F)c2)cc1C(=O)Nc1nc(CC(C)N2CCOCC2)ns1` (centres undefined), for which the pIC50 in data set [2] was 7.49. In the case of `Cc1oc(-c2cccc(C#N)c2)cc1C(=O)Nc1nc(CN2CCOCC2)ns1`, in data set [2], the negative logarithm of the IC50 (pIC50) was 7.80. Further, the inhibition at 10 µM in data set [3] is 47.8%.

On to `Cc1oc(-c2cccc(C(F)(F)F)c2)cc1C(=O)Nc1nccs1`, for which, in data set [2], the pIC50 is 6.35.

For `Cc1oc(-c2cccc(C(F)(F)F)c2F)cc1C(=O)Nc1nc(CN2CCOCC2)ns1`, in data set [2], the pIC50 is 6.70. Turning to `Cc1oc(-c2cccc(C(F)(F)F)c2)cc1C(=O)Nc1nc(CN2CCCC(O)C2)ns1` (centres undefined), in data set [2], the pIC50 was 6.82.

The term pIC50 denotes the IC50 on a negative log10 scale, so that one unit is a factor of ten. As a reminder, the inhibition is the drop in the measured response relative to a control, in per cent. Low readings indicate a response near the control, high ones a response far below the control.

The record behind these values is ChEMBL document CHEMBL6120968, “Discovery of Thiadiazoleamide Derivatives as Potent, Selective, and Orally Available Antagonists Disrupting Androgen Receptor Homodimer” (J Med Chem, 2024).
